{"source": "patent US20230310628A1", "about": "“Multi-Targeted Multi-Valent Ligand Drug Particles for the Treatment and Prevention of Diseases and Conditions” (priority 2017, published 2023)", "tested_on": "cell lines expressing HER2 and EGFR", "test": "Cytotoxicity studies in vitro, free versus liposomal doxorubicin", "assay_type": "cell-based, human", "settings": "compared with liposomal doxorubicin", "description": "Cytotoxicity studies were conducted with doxorubicin as it is the staple drug for liposomal delivery.\nFor cytotoxicity studies, cells cultured overnight in 96-well plates (10*10^3 cells/well) were incubated with doxorubicin-load liposomes (100 μg/ml with 1/3 dilutions) at 37° C. for 4 hr, washed with PBS, and grown in medium for 3 additional days. Cell viability was analyzed by MTT assay.", "data": [{"smiles": "COc1cccc2c1C(=O)c1c(O)c3c(c(O)c1C2=O)C[C@@](O)(C(=O)CO)C[C@@H]3O[C@H]1C[C@H](N)[C@H](O)[C@H](C)O1", "note": "[free doxorubicin, doxorubicin]", "values": [{"measurement": "effectiveness in cytotoxicity studies in vitro", "result": "most effective"}]}]}
